Reference: article PMC10119927, “Compact Rotaxane Superbases” (Journal of the American Chemical Society, 2023)
Where “and” joins values, the source holds several entries; their conditions need not be identical. Equal values may be shown once. Entries after “also recorded” stand apart in the source; their conditions may differ. Read-outs that look alike come from different tables or passages of the source.

Experiments:
[1] = cited from earlier work
[2] = Base-mediated elimination of HBr from 4-bromophenethyl bromide: deprotonation kinetics and protonation vs alkylation; conditions: for Half-life, t1/2: calculated based on second-order kinetics; for half-life (h) (25 °C) / half-life (h) (80 °C): deprotonation of 4-bromophenethyl bromide
[3] = pKaH+ determination by Lambert's method with reference bases (1H NMR); conditions: for pKaH+: Lambert's method
Protocol: The pKaH^+ values shown were determined in CD3CN using Lambert’s method[8] with appropriate reference bases (see Supporting Information, Section 2.0).

[4] = Hydrolytic decomposition in 1 M NaOD in 9:1 v/v CD3OD/D2O
[5] = hydrolytic decomposition, 1 M NaOD, 9:1 CD3OD/D2O, 25 °C
[6] = 25 °C, 1 M NaOD in 9:1 d4-methanol:D2O, pseudo-first-order
[7] = hydrolytic decomposition, 1 M NaOD, 9:1 CD3OD/D2O, 80 °C
[8] = 80 °C, 1 M NaOD in 9:1 d4-methanol:D2O, pseudo-first-order
[9] = Table 1, conventional superbases
[10] = Table S1, conventional superbases

NCCCCN [1,4-diaminobutane]
pKaH+ ([1]; in CD3CN, reference base): 20.1

C1COCCOCCOCCOCCOCCOCCO1.FC(F)(F)c1cc(CNCc2cc(C(F)(F)F)cc(C(F)(F)F)c2)cc(C(F)(F)F)c1 [21C7⊂3]
Half-life, t1/2 ([2]; 80 °C): 169.69 days
half-life (h) (25 °C) ([2]; 25 °C): >5000 h
half-life (h) (80 °C) ([2]; 80 °C): 4073 h
rate of substrate deprotonation relative to the other rotaxanes in the series ([2]; in words): much more slowly
pKaH+ (MeCN) ([3]; Table 1, rotaxanes): 24.9
pKaH+ ([3]; in CD3CN): 24.9 ± 0.1
increase in the basicity of the secondary amine upon encapsulation ([3]; rotaxane vs thread 3, from pKaH+ values): 10^13 fold
hydrolytic stability (in words) ([4]; 1 M NaOD, 9:1 CD3OD/D2O): consumed completely within a matter of minutes; also recorded: decompose quickly
half-life (25 °C) [4, 5]: <0.083 h

C1COCCOCCOCCOCCOCCOCCO1.FC(F)(F)c1cc(C[NH2+]Cc2cc(C(F)(F)F)cc(C(F)(F)F)c2)cc(C(F)(F)F)c1.F[P-](F)(F)(F)(F)F [21C7⊂3•HPF6]
pKaH+ (MeCN) ([3]; Table S2, rotaxane HPF6 salts): 24.9
Half-life [4, 6]: < 0.083 h

C1COCCOCCOCCOCCOCCOCCO1.Cc1cc(C)cc(CNCc2cc(C)cc(C)c2)c1 [21C7⊂6]
Half-life, t1/2 ([2]; 25 °C): 0.00625 days
half-life (h) (25 °C) ([2]; 25 °C): 0.15 h
rate of deprotonation of 4-bromophenethyl bromide relative to the conventional organic superbases ([2]; in words): several thousand times faster
pKaH+ (MeCN) ([3]; Table 1, rotaxanes): 32.2
basicity higher than either non-interlocked component ([3]; in CD3CN): ~13 orders of magnitude
pKaH+ ([3]; in CD3CN): 32.2 ± 0.6
hydrolytic stability (in words) ([4]; 1 M NaOD, 9:1 CD3OD/D2O): stable; also recorded: excellent chemical stability
half-life (25 °C) [4, 5]: >170 h
half-life (80 °C) [4, 7]: >170 h

C1COCCOCCOCCOCCOCCOCCO1.Cc1cc(C)cc(C[NH2+]Cc2cc(C)cc(C)c2)c1.F[P-](F)(F)(F)(F)F [21C7⊂6•HPF6]
pKaH+ (MeCN) ([3]; Table S2, rotaxane HPF6 salts): 32.2
Half-life [4, 8]: > 170 h

C1COCCOCCOCCOCCOCCOCCOCCO1.CC(C)(C)c1cc(CNCc2cc(C(C)(C)C)cc(C(C)(C)C)c2)cc(C(C)(C)C)c1 [24C8⊂2]
Half-life, t1/2 ([2]; 80 °C): 10.8 days
half-life (h) (25 °C) ([2]; 25 °C): >5000 h
half-life (h) (80 °C) ([2]; 80 °C): 260 h
rate of substrate deprotonation relative to the other rotaxanes in the series ([2]; in words): much more slowly
pKaH+ (MeCN) ([3]; Table 1, rotaxanes): 26.3
pKaH+ ([3]; in CD3CN): 26.3 ± 0.22 and 26.3 ± 0.2
hydrolytic stability (in words) ([4]; 1 M NaOD, 9:1 CD3OD/D2O): decompose quickly
half-life (25 °C) [4, 5]: 6 h

C1COCCOCCOCCOCCOCCOCCOCCO1.CC(C)(C)c1cc(C[NH2+]Cc2cc(C(C)(C)C)cc(C(C)(C)C)c2)cc(C(C)(C)C)c1.F[P-](F)(F)(F)(F)F [24C8⊂2•HPF6]
pKaH+ (MeCN) ([3]; Table S2, rotaxane HPF6 salts): 26.3
Half-life [4, 6]: 6.2 h

C1COCCOCCOCCOCCOCCOCCOCCO1.FC(F)(F)c1cc(CNCc2cc(C(F)(F)F)cc(C(F)(F)F)c2)cc(C(F)(F)F)c1 [24C8⊂3]
Half-life, t1/2 ([2]; 25 °C): 7.317 days
half-life (h) (25 °C) ([2]; 25 °C): 176 h
pKaH+ (MeCN) ([3]; Table 1, rotaxanes): 20.5
pKaH+ ([3]; in CD3CN): 20.5 ± 0.1
hydrolytic stability (in words) ([4]; 1 M NaOD, 9:1 CD3OD/D2O): stable
half-life (25 °C) [4, 5]: >170 h
half-life (80 °C) [4, 7]: >170 h

C1COCCOCCOCCOCCOCCOCCOCCO1.FC(F)(F)c1cc(C[NH2+]Cc2cc(C(F)(F)F)cc(C(F)(F)F)c2)cc(C(F)(F)F)c1.F[P-](F)(F)(F)(F)F [24C8⊂3•HPF6]
pKaH+ (MeCN) ([3]; Table S2, rotaxane HPF6 salts): 20.5
Half-life [4, 8]: > 170 h

C1COCCOCCOCCOCCOCCOCCOCCO1.CC(C)(C)c1cc(CNCc2cc(C(F)(F)F)cc(C(F)(F)F)c2)cc(C(C)(C)C)c1 [24C8⊂4]
pKaH+ ([3]; in CD3CN): 22.9 ± 0.3 and 22.9 ± 0.1

C1COCCOCCOCCOCCOCCOCCOCCO1.COc1c(C(C)(C)C)cc(CNCc2cc(C(F)(F)F)cc(C(F)(F)F)c2)cc1C(C)(C)C [24C8⊂5]
pKaH+ ([3]; in CD3CN): 23.2 ± 0.3 and 23.2 ± 0.2

FC(F)(F)c1cc(C[NH2+]Cc2cc(C(F)(F)F)cc(C(F)(F)F)c2)cc(C(F)(F)F)c1.F[P-](F)(F)(F)(F)F.c1ccc2c(c1)OCCOCCOCCOc1ccccc1OCCOCCOCCO2 [DB24C8⊂3•HPF6]
pKaH+ (MeCN) ([3]; Table S2, rotaxane HPF6 salts): 20.3
Half-life [4, 8]: > 170 h

F[P-](F)(F)(F)(F)F.O=C(CC[NH2+]Cc1cc(C(F)(F)F)cc(C(F)(F)F)c1)Nc1cc(C(F)(F)F)cc(C(F)(F)F)c1.c1ccc2c(c1)OCCOCCOCCOc1ccccc1OCCOCCOCCO2 [DB24C8⊂8•HPF6]
pKaH+ (MeCN) ([3]; Table S2, rotaxane HPF6 salts): 20.7
Half-life [4, 8]: > 170 h

C1CCC2=NCCCN2CC1 [DBU, 1,8-diazabicyclo(5.4.0)undec-7-ene, reference compound]
Half-life, t1/2 ([2]; 25 °C): 26.47 days
half-life (h) (25 °C) ([2]; 25 °C): 635 h
Half-life ([4]; buffer, Half-life, 25 °C, 1 M NaOD in 9:1 d4-methanol:D2O, pseudo-first-order): 10.9 h
Half-life ([4]; buffer, half-life (25 °C), hydrolytic decomposition, 1 M NaOD, 9:1 CD3OD/D2O, 25 °C): 11 h
pKaH+ (MeCN) [1, 9]: 24.3[1]
pKaH+ (MeCN) [1, 10]: 24.3
pKaH+ (MeCN) ([1]; Table S2, reference superbases): 24.3

CN(C)P(=NC(C)(C)C)(N(C)C)N(C)C [P1-^tBu, tert-butylimino-tris(dimethylamino)phosphorane, reference compound]
Half-life, t1/2 ([2]; 25 °C): 17.45 days
half-life (h) (25 °C) ([2]; 25 °C): 419 h
Half-life [4, 8]: > 170 h
half-life (25 °C) [4, 5]: >170 h
half-life (80 °C) [4, 7]: >170 h
pKaH+ (MeCN) [1, 9]: 27.0[1]
pKaH+ (MeCN) [1, 10]: 27
pKaH+ (MeCN) ([1]; Table S2, reference superbases): 27.0

CN(C)c1cccc2cccc(N(C)C)c12 [proton-sponge]
pKaH+ ([1]; in MeCN): 18.6
